pIC50: −log10 of the molar value.
Test system: LG0703-F948-PDC spheroids with HUVEC/MSC, viability
Experiment: Anticancer human tumor LG0703-F948-PDC patient-derived lung adenocarcinoma cell line growth inhibition [IpAb]
Settings: for pIC50: curve of first compound; for viability, T/C: stronger effect = lower value; active = viability on the fitted dose curve at most 10% of control; inactive = the rest
How it was run: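 Combinations with ipatasertib or abemaciclib were tested on tumour spheroids holding HUVEC (25%) and MSC (15%) alongside 60% malignant cells. Top concentration was at or near clinical Cmax (10 microM if undefined), descending in half-log steps.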
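Note: spheroids exposed to compounds for seven days before readout.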
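Throughout, for viability, T/C: T/C percent relative to DMSO vehicle wells set as 100% viability.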

C=CC(=O)N1CCN(c2nc(=O)n(-c3c(C)ccnc3C(C)C)c3nc(-c4c(O)cccc4F)c(F)cc23)C(C)C1 (stereo not given) + CCN1CCN(Cc2ccc(Nc3ncc(F)c(-c4cc(F)c5nc(C)n(C(C)C)c5c4)n3)nc2)CC1
inactive: viability, T/C (second compound 0.01 µM, first compound 0.0316 µM) 110% | viability, T/C (second compound 0.01 µM, first compound 0.1 µM) 110% | viability, T/C (second compound 0.01 µM, first compound 0.316 µM) 107% | viability, T/C (second compound 0.01 µM, first compound 1 µM) 121% | viability, T/C (second compound 0.01 µM, first compound 3.16 µM) 111% | viability, T/C (second compound 0.01 µM, first compound 10 µM) 79.5% | viability, T/C (second compound 0.0316 µM, first compound 0.0316 µM) 95.5% | viability, T/C (second compound 0.0316 µM, first compound 0.1 µM) 92% | viability, T/C (second compound 0.0316 µM, first compound 0.316 µM) 94.2% | viability, T/C (second compound 0.0316 µM, first compound 1 µM) 104% | viability, T/C (second compound 0.0316 µM, first compound 3.16 µM) 99.2% | viability, T/C (second compound 0.0316 µM, first compound 10 µM) 75.9% | viability, T/C (second compound 0.1 µM, first compound 0.0316 µM) 86.6% | viability, T/C (second compound 0.1 µM, first compound 0.1 µM) 95.5% | viability, T/C (second compound 0.1 µM, first compound 0.316 µM) 91.2% | viability, T/C (second compound 0.1 µM, first compound 1 µM) 94.5% | viability, T/C (second compound 0.1 µM, first compound 3.16 µM) 91.8% | viability, T/C (second compound 0.1 µM, first compound 10 µM) 73% | viability, T/C (second compound 0.316 µM, first compound 0.0316 µM) 88.1% | viability, T/C (second compound 0.316 µM, first compound 0.1 µM) 85.6% | viability, T/C (second compound 0.316 µM, first compound 0.316 µM) 82.3% | viability, T/C (second compound 0.316 µM, first compound 1 µM) 97.7% | viability, T/C (second compound 0.316 µM, first compound 3.16 µM) 95.6% | viability, T/C (second compound 0.316 µM, first compound 10 µM) 79.6% | viability, T/C (second compound 1 µM, first compound 0.0316 µM) 89.8% | viability, T/C (second compound 1 µM, first compound 0.1 µM) 82.9% | viability, T/C (second compound 1 µM, first compound 0.316 µM) 46.8% | viability, T/C (second compound 1 µM, first compound 1 µM) 96.6% | viability, T/C (second compound 1 µM, first compound 3.16 µM) 95.7% | viability, T/C (second compound 1 µM, first compound 10 µM) 73.1%
< 5.00: pIC50 (second compound 0.01 µM) | pIC50 (second compound 0.0316 µM) | pIC50 (second compound 0.1 µM) | pIC50 (second compound 0.316 µM) | pIC50 (second compound 1 µM)

CC(=O)c1c(C)c2cnc(Nc3ccc(N4CCNCC4)cn3)nc2n(C2CCCC2)c1=O + CCN1CCN(Cc2ccc(Nc3ncc(F)c(-c4cc(F)c5nc(C)n(C(C)C)c5c4)n3)nc2)CC1
inactive: viability, T/C (second compound 0.01 µM, first compound 0.000949 µM) 106% | viability, T/C (second compound 0.01 µM, first compound 0.003 µM) 102% | viability, T/C (second compound 0.01 µM, first compound 0.00949 µM) 92% | viability, T/C (second compound 0.01 µM, first compound 0.03 µM) 89.5% | viability, T/C (second compound 0.01 µM, first compound 0.0949 µM) 88.7% | viability, T/C (second compound 0.01 µM, first compound 0.3 µM) 83.9% | viability, T/C (second compound 0.0316 µM, first compound 0.000949 µM) 97.9% | viability, T/C (second compound 0.0316 µM, first compound 0.003 µM) 85.7% | viability, T/C (second compound 0.0316 µM, first compound 0.00949 µM) 84.5% | viability, T/C (second compound 0.0316 µM, first compound 0.03 µM) 97.8% | viability, T/C (second compound 0.0316 µM, first compound 0.0949 µM) 83.5% | viability, T/C (second compound 0.0316 µM, first compound 0.3 µM) 76.8% | viability, T/C (second compound 0.1 µM, first compound 0.000949 µM) 81.7% | viability, T/C (second compound 0.1 µM, first compound 0.003 µM) 77.7% | viability, T/C (second compound 0.1 µM, first compound 0.00949 µM) 71.6% | viability, T/C (second compound 0.1 µM, first compound 0.03 µM) 81.9% | viability, T/C (second compound 0.1 µM, first compound 0.0949 µM) 92.1% | viability, T/C (second compound 0.1 µM, first compound 0.3 µM) 70.5% | viability, T/C (second compound 0.316 µM, first compound 0.000949 µM) 89.1% | viability, T/C (second compound 0.316 µM, first compound 0.003 µM) 86.8% | viability, T/C (second compound 0.316 µM, first compound 0.00949 µM) 88% | viability, T/C (second compound 0.316 µM, first compound 0.03 µM) 90.9% | viability, T/C (second compound 0.316 µM, first compound 0.0949 µM) 84.7% | viability, T/C (second compound 0.316 µM, first compound 0.3 µM) 81.4% | viability, T/C (second compound 1 µM, first compound 0.000949 µM) 82.3% | viability, T/C (second compound 1 µM, first compound 0.003 µM) 77.3% | viability, T/C (second compound 1 µM, first compound 0.00949 µM) 54.4% | viability, T/C (second compound 1 µM, first compound 0.03 µM) 83% | viability, T/C (second compound 1 µM, first compound 0.0949 µM) 86.4% | viability, T/C (second compound 1 µM, first compound 0.3 µM) 79.7%
< 6.52: pIC50 (second compound 0.01 µM) | pIC50 (second compound 0.0316 µM) | pIC50 (second compound 0.1 µM) | pIC50 (second compound 0.316 µM) | pIC50 (second compound 1 µM)

— PubChem BioAssay AID2060330 (Molecular Pharmacology Branch, DTP, NCI, 2025)
